Assay results taken from patent publication US8163269B2, “Bioactive stents for type II diabetics and methods for use thereof” (priority 2004, dated 2012).
No end group written: not given here.

Legend:
ECs = experiment: adhesion assay with peptides conjugated to PEA polymer; type: cell-based, Human; set-up: key to adhesion assay microscopic observation, cell shape: r = round; s = spindly; sp = spread; conditions: for ability of peptide to bind to cells after conjugation / adhesion of ECs compared to SMCs on conjugated peptide versus unconjugated PEA-H polymer: peptide conjugated to PEA-H polymer; for adhesion relative to basal levels: assays 1 and 2
Experimental: (§1) The attachment factor, in a phosphate buffered saline (PBS) solution, was coated onto a non-tissue culture dish and allowed to adsorb overnight at 4° C. The following day the plate was blocked for 1 hour at room temperature with heat-inactivated, 0.2% bovine serum albumin (BSA) solution (in PBS) to prevent non-specific attachment. A timed adhesion assay was then conducted. The assay includes negative control wells coated only with PBS and positive control wells coated with fibronectin. So far, none of the adhesion factors tested has surpassed the cell adhesion and cell spreading induced by fibronectin. In addition to adhesion, spreading is also an important consideration in determining the suitability of a substrate. If the cells are not able to spread, it is unlikely that the cells will proliferate on that surface.
The first conjugation was done to the PEA-H version of the polymer (acid) since this polymer has suitable sites for conjugation. The peptides can be covalently bound to this polymer via a wide variety of suitable functional groups. For example, when the biodegradable polymer is a poly(ester amide) (PEA) containing Lysine residues, the carboxyl groups from the Lysine residues can be used to react with a complementary moiety on the peptide, such as an hydroxy, amino, thio moiety, and the like (5). Specifically, the PEA-H polymer with free COOH reacts with water soluble carbodiimide (WSC) and N-Hydroxysuccinimide (HOSu) to produce an activated ester, which, in turn, reacts with an amino functional group of a peptide to provide an amide linkage (FIG. 6B). By using a fluorescent dansyl-lysine (FIG. 5), the optimal reaction conditions for activation and conjugation were determined (FIG. 6A).
The conjugation of CS5 and GREDVDY peptides to the polymer was then performed using the same protocol (FIG. 6B).
A similar protocol (see flow chart FIG. 6B) was used to conjugate combinations of the acid polymer with PEA polymer of structure (I) containing acetylated ends and benzylated COOH groups, (PEA-AcBz) and PEA-TEMPO (50/50 and 10/90), respectively. By combining the conjugatable acid form with the other polymers, a determination could be made whether the presence of the recruitment peptide on the polymer conferred an advantage in EC recruitment.
Microscopic observations taken at 2 h, 4 h and 6 h from duplicate wells from two representative adhesion assays are summarized in Table 2 below.

[1] = test system: endothelial cells (ECs), HCAEC=Human Coronary Artery Endothelial Cells; experiment: in vitro adhesion assay, attachment factor adsorbed onto non-tissue culture dish; type: cell-based; conditions: for specificity of cell adhesion, ECs over SMCs: HCAEC versus HASMC, adsorbed peptide; for adhesion data among bioligands tested / cell adhesion and cell spreading compared with fibronectin positive control: adsorbed attachment factor
Excerpt: Cell Recruitment to Bioactive Agents To select appropriate bioligands for use as recruitment factors in stent applications, an in vitro adhesion assay was developed. This assay can distinguish between endothelial cells (ECs) and smooth muscle cells (SMCs) to aid in selecting potential attachment factors. Both the ECs and SMCs used in these assays were purchased from Cambrex (Baltimore, Md.) (HASMC=Human Aortic Smooth Muscle Cells and HCAEC=Human Coronary Artery Endothelial Cells).
as §1
In addition to microscopic observations, cell adhesion was quantitated using an ATP assay. Data of a representative adhesion assay quantitation by ATP standard curve is shown in the graph in FIG. 4, which illustrates the comparative results obtained at 2, 4 and 6 hours into the assay. […] The cell spreading determined in microscopic observations may indicate that cell spreading can increase the overall degree of cell adhesion since more space is occupied by a well spread cell than by an adhered cell that has not spread on the surface, due to timing of data points or appropriateness of the substrate used. The ATP data are useful to support the observational findings of the adhesion assay but cannot replace the adhesion assay.

[2] = 2 h, 10/90 H/Bz (10% PEA-H and 90% PEA-Ac-Bz), Assay 1
[3] = 2 h, 10/90 H/Bz (10% PEA-H and 90% PEA-Ac-Bz), Assay 2
[4] = 2 h, 10/90 H/T (10% PEA-H and 90% PEA-Ac-TEMPO), Assay 1
[5] = 2 h, 10/90 H/T (10% PEA-H and 90% PEA-Ac-TEMPO), Assay 2
[6] = 2 h, 50/50 H/Bz (50% PEA-H and 50% PEA-Ac-Bz), Assay 1
[7] = 2 h, 50/50 H/Bz (50% PEA-H and 50% PEA-Ac-Bz), Assay 2
[8] = 2 h, 50/50 H/T (50% PEA-H and 50% PEA-Ac-TEMPO), Assay 1
[9] = 2 h, 50/50 H/T (50% PEA-H and 50% PEA-Ac-TEMPO), Assay 2
[10] = 4 h, 10/90 H/Bz (10% PEA-H and 90% PEA-Ac-Bz), Assay 1
[11] = 4 h, 10/90 H/Bz (10% PEA-H and 90% PEA-Ac-Bz), Assay 2
[12] = 4 h, 10/90 H/T (10% PEA-H and 90% PEA-Ac-TEMPO), Assay 1
[13] = 4 h, 10/90 H/T (10% PEA-H and 90% PEA-Ac-TEMPO), Assay 2
[14] = 4 h, 50/50 H/Bz (50% PEA-H and 50% PEA-Ac-Bz), Assay 1
[15] = 4 h, 50/50 H/Bz (50% PEA-H and 50% PEA-Ac-Bz), Assay 2
[16] = 4 h, 50/50 H/T (50% PEA-H and 50% PEA-Ac-TEMPO), Assay 1
[17] = 4 h, 50/50 H/T (50% PEA-H and 50% PEA-Ac-TEMPO), Assay 2
[18] = 6 h, 10/90 H/Bz (10% PEA-H and 90% PEA-Ac-Bz), Assay 1
[19] = 6 h, 10/90 H/Bz (10% PEA-H and 90% PEA-Ac-Bz), Assay 2
[20] = 6 h, 10/90 H/T (10% PEA-H and 90% PEA-Ac-TEMPO), Assay 1
[21] = 6 h, 10/90 H/T (10% PEA-H and 90% PEA-Ac-TEMPO), Assay 2
[22] = 6 h, 50/50 H/Bz (50% PEA-H and 50% PEA-Ac-Bz), Assay 1
[23] = 6 h, 50/50 H/Bz (50% PEA-H and 50% PEA-Ac-Bz), Assay 2
[24] = 6 h, 50/50 H/T (50% PEA-H and 50% PEA-Ac-TEMPO), Assay 1
[25] = 6 h, 50/50 H/T (50% PEA-H and 50% PEA-Ac-TEMPO), Assay 2

Conj CS5: CS5 peptide (SEQ ID NO:1) conjugated to PEA-H mixed with PEA-Ac-Bz or PEA-Ac-TEMPO polymer coating (GEEIQIGHIPREDVDYHLYP; also: conjugated to PEA polymer coating)
adhesion assay microscopic observation, % (ECs; [2]): 30% | adhesion assay microscopic observation, cell shape (ECs; [2]): r/s | adhesion assay microscopic observation, % (ECs; [3]): 30% | adhesion assay microscopic observation, cell shape (ECs; [3]): r/s | adhesion assay microscopic observation, % (ECs; [4]): 30% | adhesion assay microscopic observation, cell shape (ECs; [4]): r/s | adhesion assay microscopic observation, % (ECs; [5]): 30% | adhesion assay microscopic observation, cell shape (ECs; [5]): r/s/sp | adhesion assay microscopic observation, % (ECs; [6]): 20% | adhesion assay microscopic observation, cell shape (ECs; [6]): r | adhesion assay microscopic observation, % (ECs; [7]): 20-30% | adhesion assay microscopic observation, cell shape (ECs; [7]): r | adhesion assay microscopic observation, % (ECs; [8]): 20-30% | adhesion assay microscopic observation, cell shape (ECs; [8]): r/s | adhesion assay microscopic observation, % (ECs; [9]): 30% | adhesion assay microscopic observation, cell shape (ECs; [9]): r/s | adhesion assay microscopic observation, % (ECs; [10]): 40% | adhesion assay microscopic observation, cell shape (ECs; [10]): r/sp | adhesion assay microscopic observation, % (ECs; [11]): 30% | adhesion assay microscopic observation, cell shape (ECs; [11]): s/sp | adhesion assay microscopic observation, % (ECs; [12]): 30% | adhesion assay microscopic observation, cell shape (ECs; [12]): r/s/sp | adhesion assay microscopic observation, % (ECs; [13]): 30-40% | adhesion assay microscopic observation, cell shape (ECs; [13]): s/sp | adhesion assay microscopic observation, % (ECs; [14]): 30% | adhesion assay microscopic observation, cell shape (ECs; [14]): r | adhesion assay microscopic observation, % (ECs; [15]): 30% | adhesion assay microscopic observation, cell shape (ECs; [15]): r/s/sp | adhesion assay microscopic observation, % (ECs; [16]): 30% | adhesion assay microscopic observation, cell shape (ECs; [16]): r | adhesion assay microscopic observation, % (ECs; [17]): 30-40% | adhesion assay microscopic observation, cell shape (ECs; [17]): r/s/sp | adhesion assay microscopic observation, % (ECs; [18]): 30-40% | adhesion assay microscopic observation, cell shape (ECs; [18]): s/sp | adhesion assay microscopic observation, % (ECs; [19]): 30% | adhesion assay microscopic observation, cell shape (ECs; [19]): r/s/sp | adhesion assay microscopic observation, % (ECs; [20]): 30-40% | adhesion assay microscopic observation, cell shape (ECs; [20]): r/s/sp | adhesion assay microscopic observation, % (ECs; [21]): 30% | adhesion assay microscopic observation, cell shape (ECs; [21]): r/s/sp | adhesion assay microscopic observation, % (ECs; [22]): 20% | adhesion assay microscopic observation, cell shape (ECs; [22]): r | adhesion assay microscopic observation, % (ECs; [23]): 30% | adhesion assay microscopic observation, cell shape (ECs; [23]): r/s | adhesion assay microscopic observation, % (ECs; [24]): 20% | adhesion assay microscopic observation, cell shape (ECs; [24]): r | adhesion assay microscopic observation, % (ECs; [25]): 30% | adhesion assay microscopic observation, cell shape (ECs; [25]): r/s

Conj REDV: GREDVDY peptide (SEQ ID NO:11) conjugated to PEA-H mixed with PEA-Ac-Bz or PEA-Ac-TEMPO polymer coating (also: conjugated to PEA polymer coating)
adhesion assay microscopic observation, % (ECs; [2]): 30% | adhesion assay microscopic observation, cell shape (ECs; [2]): r/s | adhesion assay microscopic observation, % (ECs; [3]): 30% | adhesion assay microscopic observation, cell shape (ECs; [3]): r/s/sp | adhesion assay microscopic observation, % (ECs; [4]): 30% | adhesion assay microscopic observation, cell shape (ECs; [4]): r/s | adhesion assay microscopic observation, % (ECs; [5]): 30% | adhesion assay microscopic observation, cell shape (ECs; [5]): r/s/sp | adhesion assay microscopic observation, % (ECs; [6]): 20-30% | adhesion assay microscopic observation, cell shape (ECs; [6]): r | adhesion assay microscopic observation, % (ECs; [7]): 30-40% | adhesion assay microscopic observation, cell shape (ECs; [7]): r/s/sp | adhesion assay microscopic observation, % (ECs; [8]): 20-30% | adhesion assay microscopic observation, cell shape (ECs; [8]): r | adhesion assay microscopic observation, % (ECs; [9]): 30% | adhesion assay microscopic observation, cell shape (ECs; [9]): r/s/sp | adhesion assay microscopic observation, % (ECs; [10]): 30-40% | adhesion assay microscopic observation, cell shape (ECs; [10]): r/s/sp | adhesion assay microscopic observation, % (ECs; [11]): 30-40% | adhesion assay microscopic observation, cell shape (ECs; [11]): s/sp | adhesion assay microscopic observation, % (ECs; [12]): 30-40% | adhesion assay microscopic observation, cell shape (ECs; [12]): s/sp | adhesion assay microscopic observation, % (ECs; [13]): 40% | adhesion assay microscopic observation, cell shape (ECs; [13]): s/sp | adhesion assay microscopic observation, % (ECs; [14]): 30% | adhesion assay microscopic observation, cell shape (ECs; [14]): s/sp | adhesion assay microscopic observation, % (ECs; [15]): 30-40% | adhesion assay microscopic observation, cell shape (ECs; [15]): s/sp | adhesion assay microscopic observation, % (ECs; [16]): 30% | adhesion assay microscopic observation, % (ECs; [17]): 30% | adhesion assay microscopic observation, cell shape (ECs; [17]): r/s/sp | adhesion assay microscopic observation, % (ECs; [18]): 30% | adhesion assay microscopic observation, cell shape (ECs; [18]): s/sp | adhesion assay microscopic observation, % (ECs; [19]): 30-40% | adhesion assay microscopic observation, cell shape (ECs; [19]): r/s/sp | adhesion assay microscopic observation, % (ECs; [20]): 30-40% | adhesion assay microscopic observation, cell shape (ECs; [20]): r/s/sp | adhesion assay microscopic observation, % (ECs; [21]): 40% | adhesion assay microscopic observation, cell shape (ECs; [21]): s/sp | adhesion assay microscopic observation, % (ECs; [22]): 30% | adhesion assay microscopic observation, cell shape (ECs; [22]): r/s | adhesion assay microscopic observation, % (ECs; [23]): 30-40% | adhesion assay microscopic observation, cell shape (ECs; [23]): r/s/sp | adhesion assay microscopic observation, % (ECs; [24]): 20% | adhesion assay microscopic observation, cell shape (ECs; [24]): r | adhesion assay microscopic observation, % (ECs; [25]): 30-40% | adhesion assay microscopic observation, cell shape (ECs; [25]): s/sp

GEEIQIGHIPREDVDYHLYP [CS5]
specificity of cell adhesion, ECs over SMCs [1]: showed specificity for ECs over SMCs | adhesion data among bioligands tested [1]: gave the most promising adhesion data | cell adhesion and cell spreading compared with fibronectin positive control [1]: neither of these peptide sequences equaled the large molecule fibronectin in cell adhesion or spreading | ability of peptide to bind to cells after conjugation (ECs): did not alter their ability to bind to cells | adhesion of ECs compared to SMCs on conjugated peptide versus unconjugated PEA-H polymer (ECs): adhered significantly better to the conjugated peptides than on the unconjugated PEA-H polymer

GREDVDY
specificity of cell adhesion, ECs over SMCs [1]: showed specificity for ECs over SMCs | adhesion data among bioligands tested [1]: gave the most promising adhesion data | cell adhesion and cell spreading compared with fibronectin positive control [1]: neither of these peptide sequences equaled the large molecule fibronectin in cell adhesion or spreading | adhesion relative to basal levels (ECs; 10/90 PEA-H/PEA-TEMPO (H/T) conjugated to peptide): increased adhesion over basal levels | adhesion relative to basal levels (ECs; 50/50 PEA-H/PEA-Ac-Bz (H/Bz) conjugated to peptide): increased adhesion over basal levels | cell recruitment, complete evaluation of assays with conjugated peptides on polymer (ECs; Table 2 assays): more robust in cell recruitment than the longer (20 mer) CS5 peptide | ability of peptide to bind to cells after conjugation (ECs): did not alter their ability to bind to cells | adhesion of ECs compared to SMCs on conjugated peptide versus unconjugated PEA-H polymer (ECs): adhered significantly better to the conjugated peptides than on the unconjugated PEA-H polymer
